Test results from ChEMBL document CHEMBL1201862, “PubChem BioAssay data set” (2004).
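Growth conditions: 96-well plates. Treatment: test compound, 48 hours, 5 concentrations. Analysis: linear interpolation between bracketing concentrations; unreached endpoints set to highest concentration. Here, GI50 denotes the concentration required for 50% inhibition of growth.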 Activity calls are given as the source filed them. Rule as the data show it: active = GI50 up to about 1.1 µM and inactive = higher.

Experiments:
Assay in all cases: inhibition of tumour cell growth, NCI panel, 48 h
786-0 = tested on: 786-0
A498 = tested on: A498
A549 = tested on: A549
ACHN = tested on: ACHN
BT-549 = tested on: BT-549
CAKI-1 = tested on: CAKI-1
CCRF-CEM = tested on: CCRF-CEM
COLO 205 = tested on: COLO 205
DLD-1 = tested on: DLD-1
DMS-114 = tested on: DMS-114
DMS-273 = tested on: DMS-273
DU-145 = tested on: DU-145
EKVX = tested on: EKVX
HCC 2998 = tested on: HCC 2998
HCT-116 = tested on: HCT-116
HCT-15 = tested on: HCT-15
HL-60 = tested on: HL-60
HOP-18 = tested on: HOP-18
HOP-62 = tested on: HOP-62
HOP-92 = tested on: HOP-92
HT-29 = tested on: HT-29
Hs-578T = tested on: Hs-578T
IGROV-1 = tested on: IGROV-1
K562 = tested on: K562
KM-20L2 = tested on: KM-20L2
KM12 = tested on: KM12
LOX IMVI = tested on: LOX IMVI
LXFL 529 = tested on: LXFL 529
M14 = tested on: M14
M19-MEL = tested on: M19-MEL
MCF7 = tested on: MCF7
MDA-MB-231 = tested on: MDA-MB-231
MDA-MB-435 = tested on: MDA-MB-435
MDA-N = tested on: MDA-N
MOLT-4 = tested on: MOLT-4
Malme-3M = tested on: Malme-3M
NCI-H226 = tested on: NCI-H226
NCI-H23 = tested on: NCI-H23
NCI-H460 = tested on: NCI-H460
NCI-H522 = tested on: NCI-H522
NCI/ADR-RES = tested on: NCI/ADR-RES
OVCAR-3 = tested on: OVCAR-3
OVCAR-4 = tested on: OVCAR-4
OVCAR-5 = tested on: OVCAR-5
OVCAR-8 = tested on: OVCAR-8
PC-3 = tested on: PC-3
RPMI-8226 = tested on: RPMI-8226
RXF 393 = tested on: RXF 393
RXF 631 = tested on: RXF 631
SF-268 = tested on: SF-268
SF-295 = tested on: SF-295
SF-539 = tested on: SF-539
SK-MEL-28 = tested on: SK-MEL-28
SK-MEL-2 = tested on: SK-MEL-2
SK-MEL-5 = tested on: SK-MEL-5
SK-OV-3 = tested on: SK-OV-3
SN12C = tested on: SN12C
SNB-19 = tested on: SNB-19
SNB-75 = tested on: SNB-75
SNB-78 = tested on: SNB-78
SR = tested on: SR
SW-620 = tested on: SW-620
T47D = tested on: T47D
TK-10 = tested on: TK-10
U-251 = tested on: U-251
UACC-257 = tested on: UACC-257
UACC-62 = tested on: UACC-62
UO-31 = tested on: UO-31
XF498 = tested on: XF498

In the case of `CC1(C)C(=O)/C=C\C(=O)C(C)(C)C2=CC=C(O2)C(C)(C)C(=O)C(Br)C(Br)C(=O)C(C)(C)C2=CC=C1O2` (centres undefined), the GI50 (786-0) was 39.6 µM (inactive), the GI50 (A498) was > 100 µM (inactive) and the GI50 (A549) was > 100 µM (inactive). For the same compound, the GI50 (ACHN) was > 46.5 µM (inactive), the GI50 (BT-549) was 21.7 µM (inactive) and the GI50 (CAKI-1) was 58.6 µM (inactive). The GI50 (CCRF-CEM) was 1.93 µM (inactive), the GI50 (COLO 205) was > 81.8 µM (inactive) and the GI50 (DLD-1) was 13.6 µM (inactive). The GI50 (DMS-114) was > 31.6 µM (inactive), the GI50 (DMS-273) was 33.3 µM (inactive) and the GI50 (DU-145) was > 100 µM (inactive). For the same compound, the GI50 (EKVX) was > 100 µM (inactive), the GI50 (HCC 2998) was > 100 µM (inactive) and the GI50 (HCT-116) was 17.9 µM (inactive). For the same compound, the GI50 (HCT-15) was 53.1 µM, the GI50 (HL-60) was 4.76 µM (inactive) and the GI50 (HOP-18) was > 100 µM (inactive). For the same compound, the GI50 (HOP-62) was > 100 µM (inactive), the GI50 (HOP-92) was > 21.5 µM (inactive) and the GI50 (HT-29) was 41.8 µM (inactive). The GI50 (Hs-578T) was 30.1 µM (inactive), the GI50 (IGROV-1) was > 52.6 µM (inactive) and the GI50 (K562) was 5.19 µM (inactive). For the same compound, the GI50 (KM-20L2) was > 100 µM (inactive), the GI50 (KM12) was 71.8 µM (inactive) and the GI50 (LOX IMVI) was 23 µM (inactive). The GI50 (LXFL 529) was 27.9 µM (inactive), the GI50 (M14) was 58.7 µM (inactive) and the GI50 (M19-MEL) was 53.7 µM (inactive). The GI50 (MCF7) was 33.6 µM (inactive), the GI50 (MDA-MB-231) was 27.4 µM (inactive) and the GI50 (MDA-MB-435) was 34.4 µM (inactive). For the same compound, the GI50 (MDA-N) was > 45 µM (inactive), the GI50 (MOLT-4) was 3.3 µM (inactive) and the GI50 (Malme-3M) was 49.9 µM (inactive). For the same compound, the GI50 (NCI-H226) was > 100 µM (inactive), the GI50 (NCI-H23) was 48.5 µM (inactive) and the GI50 (NCI-H460) was > 100 µM (inactive). The GI50 (NCI-H522) was 21.8 µM (inactive), the GI50 (NCI/ADR-RES) was 23.2 µM (inactive) and the GI50 (OVCAR-3) was 29.9 µM (inactive). For the same compound, the GI50 (OVCAR-4) was > 74.5 µM (inactive), the GI50 (OVCAR-5) was > 100 µM (inactive) and the GI50 (OVCAR-8) was 12 µM (inactive). For the same compound, the GI50 (PC-3) was > 100 µM (inactive), the GI50 (RPMI-8226) was 2.58 µM (inactive) and the GI50 (RXF 393) was 31.3 µM (inactive). For the same compound, the GI50 (RXF 631) was > 100 µM (inactive), the GI50 (SF-268) was > 66.5 µM (inactive) and the GI50 (SF-295) was > 100 µM (inactive). The GI50 (SF-539) was > 68.9 µM (inactive), the GI50 (SK-MEL-28) was 76.7 µM (inactive) and the GI50 (SK-MEL-2) was 99.1 µM (inactive). For the same compound, the GI50 (SK-MEL-5) was 45 µM (inactive), the GI50 (SK-OV-3) was > 100 µM (inactive) and the GI50 (SN12C) was > 80 µM (inactive). For the same compound, the GI50 (SNB-19) was > 100 µM (inactive), the GI50 (SNB-75) was 51.6 µM (inactive) and the GI50 (SNB-78) was 41.8 µM (inactive). For the same compound, the GI50 (SR) was 2.12 µM (inactive), the GI50 (SW-620) was 7.4 µM (inactive) and the GI50 (T47D) was > 81.7 µM (inactive). The GI50 (TK-10) was > 100 µM (inactive), the GI50 (U-251) was 41.4 µM (inactive) and the GI50 (UACC-257) was 83.8 µM (inactive). For the same compound, the GI50 (UACC-62) was 24 µM (inactive), the GI50 (UO-31) was > 92.3 µM (inactive) and the GI50 (XF498) was > 67.5 µM (inactive).
